Values quoted from earlier work as cited in patent US20220184020A1, “Polyphenols as Modulators of Platelet Function” (Northeastern University, priority 2019, published 2022).

Experiments:
[1] = cited from earlier work; for Max: maximum concentration detected in blood; for Max / Min: HMDB; for Min: minimum concentration detected in blood; for Concentration in Blood: retrieved from HMDB, Table 2
[2] = in vitro and in vivo models; cited from earlier work
[3] = in vivo models, recent studies; cited from earlier work
[4] = tested on: MCF7 cell line; conditions: MCF7, 1 μM, 6 hours; cited from earlier work

Structure (SMILES)	Max [1] [µM]	Min [1] [µM]	further results
O=C(O)c1cccc(O)c1O [2,3-dihydroxybenzoic acid]	0.129	0.129	–
O=C(O)c1ccccc1O [2-hydroxybenzoic acid]	0.02	0.02	–
Oc1cc(O)c2c(c1)O[C@H](c1ccc(O)c(O)c1)[C@H](O)C2 [(-)-epicatechin]	0.625	0.625	Concentration in Blood [1]: 625 nM
O=C(O[C@@H]1Cc2c(O)cc(O)cc2O[C@@H]1c1cc(O)c(O)c(O)c1)c1cc(O)c(O)c(O)c1 [(-)-epigallocatechin 3-O-gallate]	–	–	glucose-lowering effects [2]: glucose-lowering effects
O=c1cc(-c2ccc(O)cc2)oc2cc(O)cc(O)c12 [apigenin]	0.127	0.0106	–
O=c1oc2cc(O)ccc2c2oc3cc(O)ccc3c12 [coumestrol]	0.0123	0.0123	–
O=c1oc2c(O)c(O)cc3c(=O)oc4c(O)c(O)cc1c4c23 [ellagic acid]	0.067	0.067	–
O=C(O)c1cc(O)c(O)c(O)c1 [gallic acid]	–	–	effects on vascular health [3]: protective effects on vascular health
O=c1c(-c2ccc(O)cc2)coc2cc(O)cc(O)c12 [genistein]	0.525	0.00022	number of Skin Diseases (SD) genes with perturbation score>2 [4]: 10; number of highly perturbed Cerebrovascular Disorders (CD) genes [4]: one; Concentration in Blood [1]: [0.006-0.525 μM]
COc1ccccc1O [guaiacol]	8.5	8.5	–
COc1cc(-c2oc3cc(O)cc(O)c3c(=O)c2O)ccc1O [isorhamnetin]	0.157	0.0388	–
O=c1c(O)c(-c2cc(O)c(O)c(O)c2)oc2cc(O)cc(O)c12 [myricetin]	45	45	–
O=C1C[C@@H](c2ccc(O)cc2)Oc2cc(O)cc(O)c21 [naringenin]	0.02	0.00815	–
Oc1ccccc1 [phenol]	6.38	0.86	–
O=C(O)Cc1ccccc1 [phenylacetic acid]	80.36	10.28	–
O=c1c(O)c(-c2ccc(O)c(O)c2)oc2cc(O)cc(O)c12 [quercetin]	–	–	Concentration in Blood [1]: [0.022-0.080 μM]
